This note sets out measurements from patent US20070093539A1, “N-hydroxy-4-(3-pheyl-5-methyl-isoxazole-4-yl)-benzenesulfonate solvates” (priority 2003, published 2007).

Assay [1] concerns the target T1, Human recombinant COX-2 (Homo sapiens, UniProt P35354).
T1 construct: purchased Cayman Chemical, Ann Arbor, USA 60122
T1 sequence (P35354 18-604): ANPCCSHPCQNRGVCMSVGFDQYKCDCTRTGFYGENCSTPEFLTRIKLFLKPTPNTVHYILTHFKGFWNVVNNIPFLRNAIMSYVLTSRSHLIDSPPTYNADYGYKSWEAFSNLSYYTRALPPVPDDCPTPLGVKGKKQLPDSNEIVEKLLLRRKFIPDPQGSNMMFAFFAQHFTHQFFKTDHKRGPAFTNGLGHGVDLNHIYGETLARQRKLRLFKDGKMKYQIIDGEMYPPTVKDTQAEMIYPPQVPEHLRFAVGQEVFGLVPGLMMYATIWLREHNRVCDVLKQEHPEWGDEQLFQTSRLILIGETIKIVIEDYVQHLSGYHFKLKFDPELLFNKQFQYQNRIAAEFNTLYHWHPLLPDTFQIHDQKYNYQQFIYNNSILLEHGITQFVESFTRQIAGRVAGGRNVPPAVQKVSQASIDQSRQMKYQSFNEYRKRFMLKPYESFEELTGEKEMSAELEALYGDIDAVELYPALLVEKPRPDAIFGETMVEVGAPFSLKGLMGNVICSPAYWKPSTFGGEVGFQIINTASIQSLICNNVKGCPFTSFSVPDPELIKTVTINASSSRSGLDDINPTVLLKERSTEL
Briefly: spectrophotometric TMPD assay, COX-2. The class given is biochemical. The settings on record: 15 min preincubation at 25° C., read-out: Human recombinant COX-2 IC50 (μM) ± S.E.M. The protocol:
The Human recombinant COX-2 and sheep COX-1 activity were determined by spectrophotometric TMPD assay (K. Gierse, S. D. Hauser, D. P. Creely, C. M. Koboldt, S. H. Rangwala, P. C. Isakson and K. Seibert: Expression and selective inhibition of the constitutive and inducible forms of human cyclo-oxygenase Biochem. J. 305: 479-484 (1995)).
The Human recombinant COX-2 and sheep COX-1 activity were measured by spectrophotometric assay based on oxidation of N,N,N′,N′,-tetramethyl-p-phenylenediamine (TMPD). During the reduction of the prostaglandine G2 (PGG2) to prostaglandine endoperoxid H2 (PGH2), the TMPD is being oxidated to a colour product, which can be measured by spectrophotometer at 610 nm.
4 μl of solution of inhibitors in different concentrations was added to the 156 μl of reaction mixture (100 mM sodium phosphate buffer, pH:6.5, 1 μM hematin, 1 mg/ml gelatine). Afterwards 20 μl solution of 50 unit human recombinant COX-2 enzym or 20 μl of 50 unit sheep COX-1 enzym (Cayman Chemical, Ann Arbor, USA, cat no.: 60122/COX-2/, cat. no.: 60100/COX-1/) was added. The incubation mixture: was preincubated for 15 minutes at 25° C. in a spectrophotometric 96-well plate reader (Labsystem iEMS Reader MF). Following this, the mixture of 20 μl 1 mM arachidonic acid and 1 mM TMPD solution were added. It was shaken for 10 second and the absorbance was measured at 610 nm.

The test system of assay [2] is carrageenan-induced foot paw edema. Put plainly: Carrageenan-induced rat foot paw edema assay. To be noted: for ED30 of edema inhibition: p.o. Type of assay: in vivo, male Wistar rats. The protocol:
The edema was induced in male Wistar rats (140-150 g) by subcutaneous injection of carrageenan (50 μl of 1% suspension) into the right hind paw. The formed inflammation was measured with plethysmometer (Ugo Basile, type: 7150). The treated paw was placed into the plethysmometer (filled with 0.3% additives in 0.5% saline), the level of the inflammation was detected by the volume of the displaced solution. This volume was compared with the initial preinjection paw volume. Level of the inflammation (ml)=volume after CA treatment (ml)−volume before CA treatment (ml) The inflammation induced in treated group was compared to control group (which was given only vehicle). The sample materials and the solvent were dosed per os via gastro-sonde 1 hour before the CA treatment. The volume of the treated limb was measured at 3h and 5h after CA treatments. The change of the inflammation level was calculated as follows: [formula]
For orientation: In the carrageenan paw model, swelling and tenderness develop within hours.

Assay [3] concerns carrageenan induced inflammatory hyperalgesia. Briefly: Carrageenan induced inflammatory hyperalgesia (Randall-Selitto), acute model. The class given is in vivo, male SPRD rats. The settings on record: Acut model, 10 mg/kg p.o. The protocol:
Edema was induced by injection of Carrageenan (CA) into plantar surface of right hind paw. Male SPRD rats (weighing 140-190 g) were used n=6-8/group). Then the mechanical pain threshold of the inflamed hind paw was determined with an analgesimeter ((Ugo Basile, type: 37215).
This assay monitors the decrease of the pain threshold, and the time depending changing of the pain by mechanical pain stimulus. Analgesics can increase the pain threshold of the inflamed hinds and this effect is in terms of percentage of reversal.
Untreated right hind paw was compressed with a progressively increasing pressure. The pressure was recorded (in grams) when the animal first vocalized or made a vigorous attempt to remove the paw. It was determined to baseline threshold of the untreated paw. (average: 80-110 g). After it the animals were treated with carrageenan. After the treatment the edema and the threshold were checked in a given times. […] (Average of inflammation induced pain threshold was 20-25 g, this means 65-80% decrease related to the baseline.)
1 hour after the CA injection (100 μl of 2% solution) the animals were treated with test compounds and valdecoxib (10-10 mg/kg p.o.). […]
The chronic phase of the inflammantion and the decreasing of the threshold were induced by higher dose of CA. Inflammation induced threshold decreasing was measured 24 hours after the CA injection (150 μl of 2% solution). ) After it the animals were treated with test compounds and valdecoxib (30-30 mg/kg p.o.). Change in the threshold was checked at 1 h, 2 h, and 3 h following drug administration. In both model used control groups were treated orally only with solvents at the time of treatments. In both protocol the effects of the test compounds were calculated in percentage reversal of mechanical hiperalgesia: [formula] • T3h: In acute model, the threshold in the control group at 3 h after the CA injection (in gram) • T24h: In chronic model, the threshold in the control group at 24 h after the CA injection (in gram) • T0h: The threshold before the CA injection (in gram) • TXh In acute model, at 3h after the CA injection • TXh=In chronic model, at 25 h, 26 h, 27 h after the CA injection

Usually IC50 stands for the concentration at which inhibition is half-maximal. “N-hydroxi-4-(3-phenyl-5-methyl-isoxazole-4-yl)-benzenesulfonamide monohydrate [example 1]”: the concentration for half-maximal inhibition (IC50) in assay [1] amounted to 1.1 ± 0.3 µM. Further, the “edema inhibition effect %” value in assay [2] (0.3 mg/kg p.o., 4 hours after treatment) was 19.5%; in assay [2] (0.3 mg/kg p.o., 6 hours after treatment), 17.5%; in assay [2] (1.0 mg/kg p.o., 4 hours after treatment), 25.2%; in assay [2] (1.0 mg/kg p.o., 6 hours after treatment) it was 37.2%; in assay [2] (3.0 mg/kg p.o., 4 hours after treatment), 33.9%; in assay [2] (3.0 mg/kg p.o., 6 hours after treatment), 40.4%. Moreover, the “edema inhibition effect %” value in assay [2] (10.0 mg/kg p.o., 4 hours after treatment) is listed as 40.7%; in assay [2] (10.0 mg/kg p.o., 6 hours after treatment), 59.2%. The “ED30 of edema inhibition” value is given as 1.8 mg/kg in assay [2] (4 hours after treatment) and 0.8 mg/kg in assay [2] (6 hours after treatment). For the same substance, the “Analgesic effect in % after p.o. treatment” value was found to be 64.6% in assay [3] (2 hours), 40.7% in assay [3] (3 hours) and 12.3% in assay [3] (4 hours).
